Data from patent US20220280594A1, “APPLICATION OF POLYPEPTIDE OR DERIVATIVE THEREOF” (CHENGDU HUITAI BIOMEDICINE CO., LTD., priority 2019, published 2022).
Ends that are not written are not given here. PEG = not defined here

What was measured:
Type in all cases: cell-based
[1] = system: human lung cancer cells (95D); assay: scratch assay, migration of 95D cells; settings: 10 μM, 48 hours, control group 55.3 ± 3.19
Procedure: (§1) In the scratch assay, the cell migration rate was negatively correlated with the inhibitory effect of the drug component on tumor cell migration ability. The cell migration inhibition experiment was described as follows: tumor cells were cultured in vitro, cells in logarithmic growth phase were collected and seeded evenly in a 24-well plate at a density of 1-2×10^5 cells/well; the cells were cultured in a cell incubator until a monolayer was formed; a scratch tool was used to make a “-” (straight) scratch on the monolayer of cells; the cells were washed 1-3 times with PBS, and a medium (with 2% fetal bovine serum) containing specific test components was added to the culture. Experimental grouping: PBS control group; polypeptide or derivative thereof treatment group (N1-N54), 10 μM. Three independent parallel wells were set up in each group, and the cells were cultured continuously in a cell incubator for 48 hours. […] At least 3 representative images for each well were taken. ImageJ software was used to count the migration distance of the cells, and the cell migration rate was calculated as: cell migration rate (%)=(width of original scratch−width of current scratch)/width of original scratch×100.
This example was a scratch assay to evaluate the inhibitory effect of the polypeptide or derivative thereof (N1-N54) on the migration ability of human lung cancer cells (95D). The experimental method was as described in Example 2.

[2] = system: human liver adenocarcinoma cells (SK-HEP-1); assay: transwell migration assay, SK-HEP-1 cells; settings: SK-HEP-1 transwell migration, 10 μM, 24 hours; control group 1 782 ± 108, control group 2 768 ± 86
Procedure: The Transwell chamber system was used in the transwell cell migration experiment. The chamber has an upper layer and a lower layer, which are separated by an artificial semipermeable membrane in the middle. Cells that have migrated through the semi-permeable membrane will attach to the lower surface of the semi-permeable membrane. The migration ability is evaluated by counting the number of cells on the lower surface of the semi-permeable membrane. The number of cells that have migrated is negatively correlated with the inhibitory effect of the drug on the migration ability of the tumor cells. Transwell migration assay was performed as follows: tumor cells were cultured in vitro, cells in logarithmic growth phase were collected, and cell suspension was prepared with fresh serum-free medium at a density of 2-3×10^5 cells/mL. Cells were inoculated, 100 μL/well cell suspension (serum-free medium) in the upper chamber and 600 μL/well complete culture medium in the lower chamber. After incubated in 37° C., 5% CO2 incubator for 4-5 hours, serum-free medium (100 μL/well) was added to the control group, and serum-free medium containing polypeptide or derivative thereof (N1-N54) was added to the upper chamber of the treatment group (100 μL/well), the final concentration of the peptide or derivative thereof in the upper chamber was 10 μM. The cells were incubated continuously for 24 hours, and then fixed with methanol and stained with crystal violet. Images were taken under a microscope and the number of migrated cells was counted with ImageJ.
This example was a transwell cell migration experiment to evaluate the inhibitory effect of the polypeptide or derivative thereof (N1-N54) on the migration ability of human liver adenocarcinoma cells (SK-HEP-1). The experimental method was as described in Example 3.

[3] = system: human pancreatic cancer cells (PANC-1); assay: scratch assay, migration of PANC-1 cells; settings: PANC-1, 10 μM, 48 hours; control group 66.65 ± 3.37
Procedure: as §1
This example was a scratch assay to evaluate the inhibitory effect of the polypeptide or derivative thereof (N1-N54) on the migration ability of human pancreatic cancer cells (PANC-1). The experimental method was as described in Example 2.

[4] = system: human pancreatic cancer cells (PANC-1); assay: transwell invasion assay, PANC-1 cells; settings: PANC-1 transwell invasion, 10 μM, 24 hours; control group 727 ± 68
Description: (§2) The Transwell chamber system was used in the transwell cell invasion experiment. The chamber has an upper layer and a lower layer, which are separated by an artificial semipermeable membrane in the middle. The upper surface of the semipermeable membrane is coated with a layer of artificial matrigel to simulate extracellular matrix. Cells that have invaded through the matrigel and semi-permeable membrane will attach to the lower surface of the semi-permeable membrane. The invasion ability is evaluated by counting the number of cells on the lower surface of the semi-permeable membrane. The number of cells that have invaded is negatively correlated with the inhibitory effect of the drug on the invasion ability of the tumor cells. Transwell invasion assay was performed as follows: tumor cells were cultured in vitro, cells in logarithmic growth phase were collected, and cell suspension was prepared with fresh serum-free medium at a density of 2-3×10^5 cells/mL. Cells were inoculated, 100 μL/well cell suspension (serum-free medium) in the upper chamber and 600 μL/well complete culture medium in the lower chamber. After incubated in 37° C., 5% CO2 incubator for 4-5 hours, serum-free medium (100 μL/well) was added to the control group, and serum-free medium containing polypeptide or derivative thereof (N1-N54) was added to the upper chamber of the treatment group (100 μL/well), the final concentration of the peptide or derivative thereof in the upper chamber was 10 μM. The cells were incubated continuously for 24 hours, and then fixed with methanol and stained with crystal violet. Images were taken under a microscope and the number of invaded cells was counted with ImageJ.
This example was the transwell cell invasion experiment to evaluate the inhibitory effect of the polypeptide or derivative thereof (N1-N54) on the invasion ability of human pancreatic cancer cells (PANC-1). The experimental method was as described in Example 4.

[5] = system: human lung squamous carcinoma cells (NCI-H226); assay: scratch assay, migration of NCI-H226 cells; settings: NCI-H226, 10 μM, 48 hours; control group 65.31 ± 3.19
Procedure: as §1
This example was a scratch assay to evaluate the inhibitory effect of the polypeptide or derivative thereof (N1-N54) on the migration ability of human lung squamous carcinoma cells (NCI-H226). The experimental method was as described in Example 2.

[6] = system: human liver adenocarcinoma cells (SK-HEP-1); assay: transwell invasion assay, SK-HEP-1 cells; settings: SK-HEP-1 transwell invasion, 10 μM, 24 hours; control group 767 ± 91
Description: as §2
This example was a transwell cell invasion experiment to evaluate the inhibitory effect of the polypeptide or derivative thereof (N1-N54) on the invasion ability of human liver adenocarcinoma cells (SK-HEP-1). The experimental method was as described in Example 4.

[7] = system: human thyroid cancer cells (FRO); assay: scratch assay, migration of FRO cells; settings: 10 μM, 48 hours, control group 60.34 ± 8.32
Procedure: as §1
This example was a scratch assay to evaluate the inhibitory effect of the polypeptide or derivative thereof (N1-N54) on the migration ability of human thyroid cancer cells (FRO). The experimental method was as described in Example 2.

[8] = system: human oral epidermoid carcinoma KB cells; assay: scratch assay, migration of KB cells; settings: 10 μM, 48 hours, control group 54.03 ± 4.21
Procedure: as §1
This example was a scratch assay to evaluate the inhibitory effect of the polypeptide or derivative thereof (N1-N54) on the migration ability of human oral epidermoid carcinoma cells (KB). The experimental method was as described in Example 2.

Substance | Migration rate (%) (mean ± SD, P) [1] | Number of cells (mean ± SD, P), migrated cells [2] | Migration rate (%) (mean ± SD, P) [3] | Number of cells (mean ± SD, P), invaded cells [4] | Migration rate (%) (mean ± SD, P) [5] | Number of cells (mean ± SD, P), invaded cells [6] | Migration rate (%) (mean ± SD, P) [7] | Migration rate (%) (mean ± SD, P) [8]
N35: SEQ ID NO: 1 with A15R, addition of one amino acid and PEG modification at the carboxyl terminal (YRVRFLAKENVTQDREDNC-{PEG}; reading uncertain) | 22.47 ± 5.12,*** % | 315 ± 36,*** | 36.83 ± 5.92,** % | 358 ± 23,*** | 42.47 ± 5.12,** % | 338 ± 43,*** | 8.04 ± 2.90,*** % | 6.07 ± 2.30,*** %
N4: SEQ ID NO: 1 with deletion of positions 15-18 and positions 1-3 (RFLAKENVTQD) | 31.65 ± 3.82,** % | 357 ± 21,*** | 19.04 ± 8.54,*** % | 37 ± 4,**** | 10.00 ± 10.27,** % | 411 ± 75,** | 11.34 ± 2.73,*** % | 5.96 ± 2.32,*** %
N30: SEQ ID NO: 1 with deletion of positions 1-5 and 15-18 and PEG modification at the carboxyl terminal (LAKENVTQD-{PEG}; reading uncertain) | 33.91 ± 3.36,** % | 156 ± 22,**** | 16.60 ± 5.85,*** % | 237 ± 15,**** | 13.91 ± 7.36,*** % | 85 ± 20,**** | 5.16 ± 1.67,*** % | 8.75 ± 3.35,*** %
N16: SEQ ID NO: 1 with substitution A7R and addition of one amino acid at the carboxyl terminus (YRVRFLRKENVTQDAEDNC) | 17.00 ± 8.00,** % | 74 ± 18,**** | 19.15 ± 4.97,*** % | 128 ± 25,**** | 21.10 ± 8.01,*** % | 398 ± 43,*** | 11.72 ± 4.41,*** % | 18.28 ± 3.45,** %
N21: SEQ ID NO: 1 with deletion of positions 1-5 and 15-18 and addition of one amino acid at the amino terminal (SLAKENVTQD) | 40.02 ± 4.20,** % | 34 ± 7,**** | 10.54 ± 9.03,*** % | 269 ± 28,**** | 13.58 ± 6.67,*** % | 356 ± 60,*** | 30.45 ± 4.94,* % | 9.87 ± 2.84,*** %
N52: SEQ ID NO: 1 with N18R, addition of two amino acids and PEG modification at the carboxyl terminal (YRVRFLAKENVTQDAEDRCT-{PEG}; reading uncertain) | 27.19 ± 5.67,** % | 318 ± 37,*** | 23.11 ± 4.27,*** % | 237 ± 27,**** | 27.19 ± 4.67,*** % | 132 ± 29,**** | 10.86 ± 3.90,*** % | 9.57 ± 1.61,*** %
N48: SEQ ID NO: 1 with A7R, deletion of position 11 and position 18, PEG modification at the carboxyl terminal (YRVRFLRKENTQDAED-{PEG}; reading uncertain) | 25.07 ± 6.31,** % | 374 ± 22,*** | 20.60 ± 4.71,*** % | 149 ± 12,**** | 25.07 ± 4.31,*** % | 109 ± 10,**** | 13.78 ± 2.61,*** % | 9.09 ± 4.23,*** %
N37: SEQ ID NO: 1 with addition of two amino acids to the carboxyl terminal and PEG modification at the amino terminal ({PEG}-YRVRFLAKENVTQDAEDNCT; reading uncertain) | 27.76 ± 6.51,** % | 84 ± 7,**** | 18.23 ± 6.77,*** % | 359 ± 34,*** | 11.33 ± 9.49,*** % | 233 ± 13,**** | 36.47 ± 5.69,* % | 24.48 ± 2.51,* %
N34: SEQ ID NO: 1 with A15R, addition of one amino acid at the carboxyl terminal, PEG modification at the amino terminal ({PEG}-YRVRFLAKENVTQDREDNC; reading uncertain) | 13.53 ± 4.35,*** % | 260 ± 32,**** | 28.58 ± 3.87,*** % | 346 ± 30,*** | 36.53 ± 4.35,** % | 187 ± 38,**** | 8.74 ± 3.40,*** % | 12.88 ± 1.71,*** %
